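Cells were grown in 96-well plates and exposed to each compound for 48 hours at five concentrations; endpoints were interpolated linearly between bracketing concentrations, or set to the highest concentration if not reached. Definition used: TGI = concentration required for complete inhibition of growth.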 Where a SMILES comes first, the peptide text is derived from it. [ ]: non-standard residue; d: D form. The star is where a group is joined. X28 = COC1=CC(=O)N(C(=O)[C@@H](O*)C(C)C)[C@H]1Cc1ccccc1; Bn2Val = CC(C)[C@@H](C(=O)*)N(Cc1ccccc1)Cc1ccccc1; NMeV = CN[C@H](C(=O)O)C(C)C; dNMeA = CN[C@H](C)C(=O)O
Assays:
Test in all cases: NCI tumour cell line growth inhibition, 48 h
[1] = test system: SF-295 CNS
[2] = test system: HS 578T breast
[3] = test system: NCI-H226 lung
[4] = test system: MDA-MB-231 breast
[5] = test system: BT-549 breast
[6] = test system: NCI/ADR-RES ovarian
[7] = test system: CCRF-CEM leukemia
[8] = test system: KM12 colon
[9] = test system: OVCAR-5 ovarian
[10] = test system: HT29 colon
[11] = test system: A549 NSCLC
[12] = test system: HOP-62 NSCLC
[13] = test system: MCF7 breast
[14] = test system: UACC-257 melanoma
[15] = test system: LOX IMVI melanoma
[16] = test system: SNB-75 CNS
[17] = test system: CAKI-1 renal
[18] = test system: K-562 leukemia
[19] = test system: EKVX NSCLC
[20] = test system: TK-10 renal
[21] = test system: A498 renal
[22] = test system: IGROV1 ovarian
[23] = test system: SW-620 colon
[24] = test system: SK-MEL-5 melanoma
[25] = test system: MDA-MB-435
[26] = test system: HCC-2998 colon
[27] = test system: OVCAR-4 ovarian
[28] = test system: DU-145 prostate
[29] = test system: U251 CNS
[30] = test system: PC-3 prostate
[31] = test system: HCT-15 colon
[32] = test system: SK-OV-3 ovarian
[33] = test system: NCI-H460 lung
[34] = test system: SR leukemia
[35] = test system: UO-31 renal
[36] = test system: OVCAR-3 ovarian
[37] = test system: SNB-19 CNS
[38] = test system: MDA-N
[39] = test system: OVCAR-8 ovarian
[40] = test system: SF-539 CNS
[41] = test system: ACHN renal
[42] = test system: MALME-3M melanoma
[43] = test system: SK-MEL-2 melanoma
[44] = test system: HCT-116 colon
[45] = test system: RXF 393 renal
[46] = test system: UACC-62 melanoma
[47] = test system: SK-MEL-28 melanoma
[48] = test system: RPMI-8226 leukemia
[49] = test system: SF-268 CNS
[50] = test system: 786-0 renal
[51] = test system: T-47D breast
[52] = test system: SN12C renal
[53] = test system: COLO 205 colon
[54] = test system: HOP-92 NSCLC
[55] = test system: M14 melanoma
[56] = test system: NCI-H522 lung
[57] = test system: MOLT-4 leukemia
[58] = test system: HL-60(TB) leukemia
[59] = test system: NCI-H23 lung

COC1=CC(=O)N(C(=O)[C@@H](OC(=O)[C@@H](C)N(C)C(=O)[C@@H]2CCCN2C(=O)[C@H](C(C)C)N(C)C(=O)[C@@H](NC(=O)[C@H](C(C)C)N(Cc2ccccc2)Cc2ccccc2)C(C)C)C(C)C)[C@H]1Cc1ccccc1 (Bn2Val-V[NMeV]P[dNMeA]-X28)
TGI [1]: > 100 µM
TGI [2]: > 100 µM
TGI [3]: > 100 µM
TGI [4]: > 77.6 µM
TGI [5]: > 100 µM
TGI [6]: > 100 µM
TGI [7]: > 100 µM
TGI [8]: > 100 µM
TGI [9]: > 100 µM
TGI [10]: > 100 µM
TGI [11]: > 100 µM
TGI [12]: > 100 µM
TGI [13]: > 100 µM
TGI [14]: > 100 µM
TGI [15]: > 100 µM
TGI [16]: > 54.8 µM
TGI [17]: > 100 µM
TGI [18]: > 100 µM
TGI [19]: > 100 µM
TGI [20]: > 100 µM
TGI [21]: > 100 µM
TGI [22]: > 100 µM
TGI [23]: > 100 µM
TGI [24]: > 100 µM
TGI [25]: > 100 µM
TGI [26]: > 100 µM
TGI [27]: > 100 µM
TGI [28]: > 100 µM
TGI [29]: > 100 µM
TGI [30]: > 100 µM
TGI [31]: > 100 µM
TGI [32]: > 100 µM
TGI [33]: > 100 µM
TGI [34]: > 100 µM
TGI [35]: 22.3 µM
TGI [36]: > 100 µM
TGI [37]: > 100 µM
TGI [38]: > 100 µM
TGI [39]: > 100 µM
TGI [40]: > 100 µM
TGI [41]: > 100 µM
TGI [42]: > 100 µM
TGI [43]: > 100 µM
TGI [44]: > 100 µM
TGI [45]: > 100 µM
TGI [46]: > 100 µM
TGI [47]: > 100 µM
TGI [48]: > 100 µM
TGI [49]: > 100 µM
TGI [50]: > 100 µM
TGI [51]: > 100 µM
TGI [52]: > 100 µM
TGI [53]: > 100 µM
TGI [54]: > 100 µM
TGI [55]: > 100 µM
TGI [56]: > 100 µM

Cc1ccc(S(=O)(=O)/N=C2/N(C)CCCS2(=O)=O)cc1
TGI [1]: > 100 µM
TGI [57]: > 100 µM
TGI [2]: > 100 µM
TGI [3]: > 100 µM
TGI [4]: 31.9 µM
TGI [5]: > 100 µM
TGI [6]: > 100 µM
TGI [7]: > 100 µM
TGI [8]: > 100 µM
TGI [9]: > 100 µM
TGI [10]: > 100 µM
TGI [11]: > 100 µM
TGI [12]: > 100 µM
TGI [13]: > 100 µM
TGI [14]: > 100 µM
TGI [15]: > 100 µM
TGI [16]: > 100 µM
TGI [17]: > 100 µM
TGI [18]: > 100 µM
TGI [19]: > 100 µM
TGI [20]: > 100 µM
TGI [21]: > 100 µM
TGI [22]: > 100 µM
TGI [23]: > 100 µM
TGI [24]: > 100 µM
TGI [25]: > 100 µM
TGI [26]: > 100 µM
TGI [27]: > 100 µM
TGI [28]: > 100 µM
TGI [58]: > 100 µM
TGI [29]: > 100 µM
TGI [30]: > 100 µM
TGI [31]: > 100 µM
TGI [32]: > 100 µM
TGI [33]: > 100 µM
TGI [34]: > 100 µM
TGI [35]: > 100 µM
TGI [36]: > 100 µM
TGI [37]: > 100 µM
TGI [38]: > 100 µM
TGI [59]: > 100 µM
TGI [39]: > 100 µM
TGI [40]: > 100 µM
TGI [41]: > 100 µM
TGI [43]: > 100 µM
TGI [44]: > 100 µM
TGI [45]: > 100 µM
TGI [46]: > 100 µM
TGI [47]: > 100 µM
TGI [48]: > 100 µM
TGI [49]: > 100 µM
TGI [50]: > 100 µM
TGI [51]: > 100 µM
TGI [52]: > 100 µM
TGI [53]: > 100 µM
TGI [54]: > 100 µM
TGI [55]: > 100 µM
TGI [56]: > 100 µM

CC(=O)NNC(=S)/N=C\c1c(O)c2ccccc2oc1=O
TGI [1]: > 100 µM
TGI [57]: > 100 µM
TGI [2]: > 100 µM
TGI [3]: > 100 µM
TGI [4]: > 100 µM
TGI [5]: > 100 µM
TGI [6]: > 100 µM
TGI [7]: > 100 µM
TGI [8]: > 100 µM
TGI [9]: > 100 µM
TGI [10]: > 100 µM
TGI [11]: > 100 µM
TGI [12]: > 100 µM
TGI [13]: > 100 µM
TGI [14]: > 100 µM
TGI [15]: > 100 µM
TGI [16]: > 100 µM
TGI [17]: > 100 µM
TGI [18]: > 100 µM
TGI [20]: > 100 µM
TGI [21]: > 100 µM
TGI [22]: > 100 µM
TGI [23]: > 100 µM
TGI [24]: > 100 µM
TGI [25]: > 100 µM
TGI [26]: > 100 µM
TGI [27]: > 100 µM
TGI [28]: > 100 µM
TGI [58]: > 100 µM
TGI [29]: > 100 µM
TGI [30]: > 100 µM
TGI [31]: > 100 µM
TGI [33]: > 100 µM
TGI [34]: > 100 µM
TGI [35]: > 100 µM
TGI [36]: > 100 µM
TGI [37]: > 100 µM
TGI [38]: > 100 µM
TGI [59]: > 100 µM
TGI [39]: > 100 µM
TGI [40]: > 100 µM
TGI [41]: > 100 µM
TGI [42]: > 100 µM
TGI [43]: > 100 µM
TGI [44]: > 100 µM
TGI [45]: > 100 µM
TGI [46]: > 100 µM
TGI [47]: > 100 µM
TGI [48]: > 100 µM
TGI [49]: > 100 µM
TGI [50]: > 100 µM
TGI [51]: > 100 µM
TGI [52]: > 100 µM
TGI [53]: > 100 µM
TGI [55]: > 100 µM
TGI [56]: > 100 µM

From PubChem BioAssay (NCI)
